Assay results: patent publication US20090246212A1, “DEVELOPMENT OF METHOD FOR SCREENING FOR DRUG CAPABLE OF IMPROVING PRODUCTION OF REGULATORY T CELLS AND METHOD FOR PRODUCING REGULATORY T CELLS USING IMMUNOSUPPRESSIVE MACROLIDE ANTIBIOTIC” (KYOTO UNIVERSITY, priority 2005, published 2009)

Tests used:
Type in all cases: cell-based, human
[1] = test system: CD45RA^+CD25^−CD4^+ T cells; assay: Expansion culture of CD45RA^+CD25^−CD4^+ T cells with allogenic PBMCs and IL-2, everolimus added; details: everolimus 100 nM or 1000 nM from the start of cultivation
Experimental: (§1) CD45RA^+CD25^+CD4^+ T cells or CD45RA^+CD25^−CD4^+ T cells in human peripheral blood (5×10̂4 cells/well) were stimulated with 1×10̂5 cells/well radiated (40 Gy) allogenic PBMCs in a 96-well round-bottomed culture plate containing 200 μl per well of a proliferation medium (AlyS505N (produced by Cell Science & Technology Institute) supplemented with 2% human AB serum) in the presence of human IL-2 (1000 U/ml, produced by Cell Science & Technology Institute).
(§2) Everolimus (100 nM or 1000 nM, produced by Novartis Pharma) was added to the medium from the start of cultivation. The everolimus was purified as follows: Certican 0.25 mg tablet (produced by Novartis Pharma) was milled and dissolved in acetone. Then, the solution was filtered, the filtrate was evaporated while rotating, and the precipitate was vacuum-dried. The extract obtained was dissolved in DMF and separated by HPLC (column C18 4 μm, 150×2.1 mm). After separation, the everolimus was freeze-dried and purified.
(§3) Every 3 to 4 days, half of the medium was replaced with a fresh proliferation medium containing IL-2. If necessary, the cells were separated and repeatedly re-stimulated with radiated (40 Gy) allogenic PBMC every 10 to 14 days. Fifty days after the start of cultivation, the cells were collected and used for functional assay.

[2] = test system: CD45RA^+CD25^+CD4^+ T cells; assay: Expansion culture of CD45RA^+CD25^+CD4^+ T cells with allogenic PBMCs and IL-2, everolimus added; details: everolimus 1000 nM from the start of cultivation
Experimental: as §1, §2, §3

[3] = test system: CD45RA^+CD25^−CD4^+ T cell line; assay: Suppression assay ([^3H] thymidine uptake) of the everolimus-cultured CD45RA^+CD25^−CD4^+ T cell line; details: cultivation in the presence of everolimus, 50 days; compared with the control
Experimental: as §1
as §2, with “The extract obtained was dissolved in DMF and separated by HPLC (column C18 4 μm, 150×2.1 mm). After separation, the everolimus was freeze-dried and purified.” left out
(§4) The indicated number of cells of the expanded CD45RA^+CD25^+CD4^+ T cell line or expanded CD45RA^+CD25^−CD4^+ T cell line, alone or along with autologous responder CD4^+ T cells (5×10̂4 cells/well), were stimulated with radiated (40 Gy) PBMCs (1×10̂5 cells/well) obtained from the same individual as the allogenic PBMCs used for the cultivation, in a proliferation medium in a round-bottomed 96-well microplate. […] Subsequently, the cells were recovered, and [^3H] thymidine uptake was measured using 1450 Microbeta TriLux (Wallac).

[4] = test system: CD45RA^+CD25^+CD4^+ T cell line; assay: Suppression assay ([^3H] thymidine uptake) of the everolimus-cultured CD45RA^+CD25^+CD4^+ T cell line; details: cultivation in the presence of everolimus, 50 days; compared with controls
Experimental: as §1
as §2, with “The extract obtained was dissolved in DMF and separated by HPLC (column C18 4 μm, 150×2.1 mm). After separation, the everolimus was freeze-dried and purified.” left out
as §4

For `CO[C@H]1C[C@@H]2CC[C@@H](C)[C@@](O)(O2)C(=O)C(=O)N2CCCC[C@H]2C(=O)O[C@H]([C@H](C)C[C@@H]2CC[C@@H](OCCO)[C@H](OC)C2)CC(=O)[C@H](C)/C=C(\C)[C@@H](O)[C@@H](OC)C(=O)[C@H](C)C[C@H](C)/C=C/C=C/C=C/1C` [everolimus, 42-O-(2-hydroxy)ethyl-rapamycin], the “proliferation of CD45RA^+CD25^−CD4^+ T cells” value [1] was “enhanced”, the “proliferation of CD45RA^+CD25^+CD4^+ T cells” value [2] was “suppressed” and the “T cell line's effect on proliferation of CD4^+ T cells in response to alloantigen-presenting cells” value [3] was “more strongly suppressed”. For the same compound, the “T cell line's effect on proliferation of CD4^+ T cells in response to alloantigen-presenting cells” value [4] was “more strongly suppressed”.
